# “Also recorded” adds a separate entry of the source. Structures can show the parent of a compound that is named as a salt. Residues, ends and D or L forms follow the SMILES beside them. *: point of attachment. Cbz = O=C(OCc1ccccc1)*
# Key:
# RANKL mRNA = RANKL mRNA induction in BMSC and MM/BMSC cultures; format: cell-based; conditions: 100 nM
# Protocol: In addition, 100 nM of these p38 MAPK inhibitors blocks the weaker induction of RANKL by IL-6 in BMSC.
# MM cells [1] = assay: MM cell viability and proliferation with proteasome inhibitor MG-132; format: cell-based; conditions: for proliferation: MG-132 alone
# MM/BMSC co-cultures = assay: MM cell proliferation in MM/BMSC co-cultures with MG-132; format: cell-based; conditions: MM cells co-cultured with BMSC; FIG. 7
# Protocol: Thus, proteasome inhibitors such as VELCADE might be limiting their own ability to induce apoptosis of MM cells by inducing growth-supporting activity in the microenvironment. Inhibition of the p38 response by BMSC would counteract this support.
# For these studies, U266, IM9 and RPMI8226 cells are incubated with DMSO (−) or with 0.5 μM of a disclosed p38 MAPK inhibitor (+) for 1 hour and cell lysates are immunoblotted with antibodies to phospho-p38 and p38 MAP kinase by Western analysis. U266B1 and RPMI8226 are MM cell lines, and IM9 is an Epstein Barr Virus (EBV)-transformed B cell line with characteristics of MM cells. All can be obtained from American Type Culture Collection (ATCC; Rockville, Md.). All cell lines are maintained in RPMI-1640 (ATCC), supplemented with 10% fetal bovine serum (Hyclone; Logan, Utah), 100 units/ml of penicillin, 100 μg/ml streptomycin and 2 mM L-glutamine (Life Technologies, Inc.; Grand Island, N.Y.). BMSC (Cambrex) are maintained in Myelocult H5100 supplemented with 10^−6 M hydrocortisone (Stem Cell Technologies; Vancouver, B.C.), 100 units/ml of penicillin and 100 μg/ml streptomycin. MM cells are usually seeded at a density of 3×10^4 cells/well in 96-well culture plates. For MM co-cultures, BMSC are first seeded at 1.2×10^4 cells/well in a 96-well plate in Myelocult/hydrocortisone medium for 24 hours prior to the addition of MM cells.
# HSP-27 = assay: immunodetection of phospho-HSP-27 in MM cells and BMSC; format: cell-based
# Protocol: (§1) Total cell lysates are immunoprecipitated with anti-MAPKAPK-2 antibody and subjected to in vitro kinase assays using purified GST-Hsp27 as substrate. To examine Hsp27 phosphorylation in MM and transformed B cells, U266, IM9 and RPMI8226 cells are incubated either with DMSO or with 0.5 μM of a p38 MAPK inhibitor and cell lysates are immunoblotted with antibodies to phospho-Hsp27 (Ser 82) and Hsp27.
# U266, IM9 and RPMI8226 cells are incubated with 0.5 μM of the p38 MAPK inhibitor for 1hour and Hsp27 proteins are immunoprecipitated with agarose-conjugated Hsp27 antibody, followed by immunoblotting with anti-phospho Hsp27 (Ser 78) antibody.
# (§2) Specific antibodies to p38 MAP kinase are from Santa Cruz Biotechnology (Santa Cruz, Calif.). Antibodies to phospho-p38 MAP kinase (T180/Y182) and phospho-Hsp27 (S82) are from Cell Signaling (Beverly, Mass.). Antibodies to Hsp27 and phospho-Hsp27 (S78) are from Upstate Biotechnology (Lake Placid, N.Y.). Anti-MAPKAPK-2 is from StressGen (San Diego, Calif.) while anti-GAPDH is from Biogenesis Ltd. (Poole, UK).
# MAPKAPK-2 = MAPKAPK-2 in vitro kinase assay on immunoprecipitates of cell lysates, GST-Hsp27 substrate; format: cell-based; conditions: 0.5 μM
# Protocol: as §1
# Hsp27 = assay: Western blot of heat shock protein levels in MM cells; format: cell-based
# Protocol: as §1
# Cells are collected at various times and lysates are examined by Western Blot analysis using specific antibodies against particular proteins, with GAPDH as loading control. Specific antibodies to Hsp70 and Hsp90 are from Santa Cruz Biotechnology (Santa Cruz, Calif.).
# The Western blots are examined for the total Hsp27 and phospho-Hsp27 levels at three different exposure times. […] This is consistent with observations made previously in MM.1S cells. […] This phenomenon appears to be unique to Hsp27 since a decrease in the levels of Hsp70 or Hsp90 in these same samples is not observed. […] The decrease of phospho-Hsp27 levels in the PS-341-treated cells is commensurate with the decrease of total Hsp27 protein in these cells.
# [2] = system: calpains, cathepsins, and other lysosomal enzymes; conditions: cited from earlier work
# p38α MAPK = molecular target: T1, p38α MAPK (Homo sapiens, UniProt Q16539); assay: p38α phospho-specific immunodetection in MM cells and BMSC; format: cell-based; conditions: BMSC treated with MG-132
# T1 construct: endogenous in cells; host or cells: U266, IM9, RPMI8226 cells; BMSC
# T1 sequence (Q16539 whole entry): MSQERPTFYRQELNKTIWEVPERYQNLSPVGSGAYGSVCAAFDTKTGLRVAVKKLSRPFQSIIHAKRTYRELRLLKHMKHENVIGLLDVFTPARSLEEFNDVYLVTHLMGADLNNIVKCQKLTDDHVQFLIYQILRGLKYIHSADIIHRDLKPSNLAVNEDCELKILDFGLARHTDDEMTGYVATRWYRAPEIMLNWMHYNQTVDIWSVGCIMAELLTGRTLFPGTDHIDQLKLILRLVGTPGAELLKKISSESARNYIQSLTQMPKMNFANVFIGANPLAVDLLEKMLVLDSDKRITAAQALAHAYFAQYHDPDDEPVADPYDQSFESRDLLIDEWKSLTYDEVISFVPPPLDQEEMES
# Excerpt: as §2
# [3] = MM patients; cited from earlier work
# caspases and PARP = assay: Western blot of caspase activation and PARP cleavage in MM cells; format: cell-based; conditions: RPMI8226; increasing duration of PS-341 treatment
# Protocol: (§3) Detection of apoptotic cells was performed by staining with Annexin V-Phycoerythrin (PE) and 7-Amino Actinomycin D (7-AAD) (BD Pharmigen; San Diego, Calif.). Samples are analyzed by dual color flow cytometry using a FACScan laser flow cytometer and Cell Quest software (Becton Dickinson; San Jose, Calif.). 7-AAD is a nucleic acid dye that is used to exclude nonviable cells in flow cytometric assays. Cells that are Annexin V-PE positive and 7-AAD negative are considered early apoptotic. Antibodies to caspase-3, -6, -7, -8, -9, and PARP are from Cell Signaling (Beverly, Mass.).
# Protein lysates from RPMI8226 cells obtained at these time points are collected in parallel and examined for Hsp27 levels, caspase activation and PARP cleavage by Western blot analysis.
# RPMI8226 cells = assay: apoptosis by Annexin V-PE flow cytometry in RPMI8226 cells; format: cell-based
# Protocol: Cells are collected at indicated times and assayed.
# as §3
# MM cells [4] = assay: treatment of a patient with multiple myeloma; format: in vivo; conditions: in combination with VELCADE
# Excerpt: A patient is diagnosed with multiple myeloma. The patient presents with MM cells with rapid growth rates, which displace osteoblasts, and disrupting the balance of bone creation and destruction. A number of MM-related cytokines, such as IL-6, VEGF, IL-11, and PGE-2 are detectable. […] MM cell growth is inhibited and MM-related cytokine product is reduced. A patient diagnosed with multiple myeloma receives VELCADE and responds well until VELCADE-resistant MM cells develop. Drug resistant MM cells with rapid growth rates begin to populate the bone marrow of the subject. Elevated levels of MM-related cytokines, such as IL-6, VEGF, IL-11, and PGE-2 are again detectable.
# [5] = RPMI8226, 10 nM PS-341, 8 hours
compound,measurement,setting,value
C[C@@H]1CN(Cc2ccc(F)cc2)[C@@H](C)CN1C(=O)c1cc2c(C(=O)C(=O)N(C)C)cn(C)c2cc1Cl [Compound 57],induction of RANKL by IL-6,RANKL mRNA; BMSC,blocks
same,induction of RANKL mRNA by TGFβ and IL-1,"RANKL mRNA; BMSC and MM/BMSC cultures, FIG. 5",blocked this induction
same,basal expression of RANKL mRNA,RANKL mRNA; FIG. 5,blocked
same,IM9 proliferation,"MM cells [1]; MG-132 in the presence of the p38 MAPK inhibitor, related to the dose of both",reduced or entirely blocked
same,effect on the reduction of MM cell viability and proliferation caused by MG-132,"MM cells [1]; co-exposure with MG-132, MM cells, FIG. 6",enhanced the reduction of MM cell viability and proliferation; also recorded: enhances the anti-proliferative effect
same,effect on the ability of MG-132 to reduce MM cell proliferation,MM/BMSC co-cultures,enhanced the ability of MG-132 to reduce MM cell proliferation; also recorded: enhances the anti-proliferative effect
same,phosphorylation of HSP-27,HSP-27; BMSC,blocked phosphorylation of HSP-27 completely
same,phosphorylation of HSP-27,HSP-27; MM cells,blocked phosphorylation of HSP-27 completely
same,Hsp27 phosphorylation,"HSP-27; U266, IM9 and RPMI8226, 0.5 μM, cell lysates or immunoprecipitation",inhibits
same,Hsp27 phosphorylation,"HSP-27; both drugs (PS-341 and p38 MAPK inhibitor), all time points",complete inhibition
same,activity of downstream substrate MAPKAPK-2,MAPKAPK-2,suppresses
same,total Hsp27,"Hsp27; 0.5 μM with 10 nM PS-341, 12 and 16 hours, RPMI8226 and IM9 cells",enhanced reduction
same,total Hsp27 levels,"Hsp27; inhibitor alone, even after prolonged incubation",does not affect
"CC(C)C[C@@H](C=O)NC(=O)[C@H](CC(C)C)NC(=O)[C@H](CC(C)C)NC(=O)OCc1ccccc1 [MG-132, Carbobenzoxy-L-Leucyl-L-Leucyl-L-Leucinal, reference compound] (Cbz-Leu-Leu-Leu-aldehyde)","concentrations with activity against calpains, cathepsins and other lysosomal enzymes, above those used in the disclosed experiments",[2],≥ 10 -fold
same,proliferation,MM cells [1]; HS Sultan MM cells,block completely
same,sensitivity of proliferation to MG-132 alone,MM cells [1]; IM9 MM cells,not sensitive
same,proliferation,MM cells [1]; U266 MM cells,block completely
same,activation of p38,p38α MAPK,resulted in activation of p38
CC(C)C[C@H](NC(=O)[C@H](Cc1ccccc1)NC(=O)c1cnccn1)B(O)O [PS-341],clinically observed circulating concentration,[3],40 to 100 nM
same,PARP cleavage,caspases and PARP,proportional increase
same,"activation or cleavage of procaspases-8, -9, -3, -6, and -7",caspases and PARP,successively increasing activation or cleavage
same,apoptotic cells,"RPMI8226 cells; 10 nM PS-341, 8 hours",early apoptotic cells are apparent
same,apoptotic cells,"RPMI8226 cells; 10 nM PS-341, 12 hours",about half the cells
same,apoptotic cells,"RPMI8226 cells; 10 nM PS-341, 16 hours",most
same,Hsp27 protein levels,"Hsp27; RPMI8226, 10 nM PS-341, 12 and 16 hours",reduced
same,Hsp27 expression,Hsp27; [5],induced
same,Hsp70 expression,Hsp27; [5],induced
same,decrease in the levels of Hsp70 or Hsp90,"Hsp27; RPMI8226, 10 nM PS-341, same samples",not observed
C[C@@H]1CN(Cc2ccc(F)cc2)[C@@H](C)CN1C(=O)c1cc2c(C(=O)C(=O)N(C)C)cn(C)c2cc1Cl [Compound 57 hydrochloride salt],sensitivity of the MM cells to VELCADE,MM cells [4]; patient with VELCADE-resistant MM,restores the sensitivity
same,MM-related cytokine product,MM cells [4]; patient,reduced
same,MM cell growth,"MM cells [4]; patient, listed as Compound 57 in the hydrochloric salt form",again inhibited

# From patent publication US20060052390A1, “Treatment of multiple myeloma by p38 MAP kinase and proteasome inhibition” (Scios, Inc., priority 2003, published 2006)
